What was measured:
[1] = test system: β-catenin; assay: β-catenin level in N2a cells by Western blotting; assay type: cell-based; details: 24 h; for β-catenin level: concentration as low as 0.1 μM; for EC50: Mus musculus, 3-4 independent experiments, read-out: EC50 values (X±SD), β-catenin level
Method: (§1) (A,C) N2a cells were treated with CI-994 at the indicated concentration for 24 h, and the levels of β-catenin (A) and BACE1 (C) were examined by Western blotting. (B,D) The band intensity of β-catenin and BACE1 was quantified and normalized to the corresponding signal for actin. The results represented in the histograms are shown as the mean±SD and are the average of three independent experiments. *P<0.05, **P<0.01 versus corresponding control value.
N2a cells were treated with 1015, 1011, or 1020 at the indicated concentration for 24 h. (A) the levels of total cellular β-catenin were examined by Western blotting. (B) The intensity of the β-catenin bands were quantified and normalized to the corresponding signal for actin. The results represented in the histograms are shown as the mean±SD and are the average of 3-4 independent experiments, and the EC50 values were calculated with graphpad prism.
(§2) Western blotting: Cells in 6-well plates were lysed in 0.5 ml of lysis buffer (phosphate-buffered saline containing 1% Triton X-100, 1× Proteinase inhibitor cocktail Complete, and 1 mM PMSF) at 4° C. for 15 min. Equal quantities of protein were subjected to SDS-PAGE under reducing conditions. Following transfer to immobilon-P transfer membrane, successive incubations with a primary antibody, and a horseradish peroxidase-conjugated secondary antibody or IRDye® 680RD goat anti-rabbit/mouse secondary antibodies were carried out for 60-120 min at room temperature. The immunoreactive proteins were then detected using the ECL system or the Odyssey infrared imaging system (LI-COR). Films showing immunoreactive bands were scanned by Hp Scanjet 5590.

[2] = test system: Wnt/β-catenin signaling; assay: Luciferase reporter assay (Super8XTOPFlash) for Wnt/β-catenin signaling in HEK293 cells; assay type: cell-based; details: 24 h; for Wnt reporter activity / activation of Wnt/β-catenin signaling: HEK293 cells; for EC50: Homo sapiens, Wnt3A plasmid-transfected HEK293 cells, 30-30,000 nM, mean and SD of 3-7 independent experiments
Method: (A) structures of niciosamide and CI-994; (B) HEK293 cells were transfected with Super8XTOPFlash and β galactosidase vectors along with Wnt3A or control vector. After 24 hours incubation, cells were treated with CI-994 at the indicated concentration for 24 hr. The luciferase activity was then measured and normalized to the activity of the β-galactosidase. (C) HT1080 cells stably transduced LRP6 with HA tag were treated with niciosamide and CI-994 at the indicated concentrations for 24 h. The levels of HA-LRP6 were examined by Western blot with anti-HA antibody. (D) Western blots showing the depletion of LRP6 after 2 days of transiently transfection of 50 nM LRP6 siRNA in HEK293 cells. ON-TARGETplus double-stranded siRNA oligomers against human LRP6 and non-specific scrambled siRNA control (Stealth RNAi™ siRNA Negative Control, Med GC) were purchased from Thermo Scientific. siRNA LRP6-1, siRNA LRP6-2 and control siRNA were Thermo Scientific catalog numbers J-003845-09, J-003845-11 and 12935300, respectively. (E) HEK293 cells were transfected with LRP6 siRNAs, and after 8 h incubation were further transfected with Super8XTOPFlash construct and β galactosidase-expressing vector. After 24 h incubation, the cells were treated with CI-994 (16 μM) for 24 h. The luciferase activity was then measured and normalized to β-galactosidase activity. All the values are the average of triplicate determinations with the SD values indicated by error bars. **P<0.01 versus corresponding control value.
HEK293 cells were transfected with SuperXTOPFlash and β-galactosidase vectors along with Wnt3A or control vector. After 24 h incubation, cells were treated with 1015 or 1039 at the indicated concentrations for 24 h. The luciferase activity was then measured and normalized to the activity of the β-galactosidase. All the values are the average of triplicate determinations with the SD values indicated by error bars. This experiment is representative of at least three such experiments performed with similar data.
Luciferase reporter assay for Wnt/β-catenin signaling: HEK293 cells were plated into 24-well plates. After overnight culture, the cells were transiently transfected with the Super8XTOPFlash luciferase construct and β-galactosidase-expressing vector along with or without Wnt3A plasmid. After 24 h incubation, cells were treated with each individual compound at the indicated concentrations for 24 h. Cells were then lysed and both luciferase and β-galactosidase activities were determined. The luciferase activity was normalized to the β-galactosidase activity.
HEK293 cells were plated into 24-well plates. After overnight culture, the cells were transiently transfected with the Super8XTOPFlash luciferase construct and β-galactosidase-expressing vector along with the Wnt3A plasmid. After 24 h incubation, the cells were treated with each individual compound at 30-30,000 nM in triplication for 24 h. The cells were then lysed, and luciferase and β-galactosidase activities were determined with the luciferase assay system (Promega, Cat. #E1501) and β-galactosidase assay system (Promega, Cat. #E2000), respectively. The luciferase activity was normalized to the s-galactosidase activity, and the EC50 values were calculated by use of GraphPad software, and shown in the below table. All the EC50 values (mean and SD) are from 3-7 independent experiments.

[3] = test system: BACE1; assay: BACE1 expression in N2a cells by Western blotting; assay type: cell-based; details: 24 h
Method: as §1
N2a cells were treated with 1015 and 1020 at the indicated concentrations for 24 h. (A) the levels of BACE1 expression were examined by Western blotting. (B) The intensity of BACE1 bands were quantified and normalized to the corresponding signal for actin. The results represented in the histograms are shown as the mean±SD and are the average of 3-4 independent experiments. *P<0.05, **P<0.01 versus corresponding control value.
as §2

[4] = test system: HDAC; assay: Histone Deacetylase (HDAC) activity assay (fluorometric kit); assay type: biochemical; details: 2 μM
Method: HDAC enzymatic activities of compounds were measured by fluorometric HDAC Activity Assay kit (Abcam. #ab156064). Trichostatin A, a known HDAC inhibitor, was used as the positive control. All the values are the average of triple determination with the s.d. indicated by error bars. **P<0.01 versus the corresponding control value.
Histone Deacetylase (HDAC) activity assay: Histone Deacetylase (HDAC) activity assay kit (ab156064) was purchased from Abcam, and the effects of the tested compounds on HDAC activity were examined according to the manufacturers specifications.

[5] = CI-994 at the indicated concentration

Row | SMILES | β-catenin level [1] | EC50 [1] [nM] | Wnt reporter activity / activation of Wnt/β-catenin signaling [2] | EC50 [2] [nM] | BACE1 expression ([3]; 0.8 μM and 1.6 μM) | inhibitory effects on HDAC activity [4] | β-catenin levels [1, 5] | BACE1 expression [3, 5]
1 | Nc1ccccc1NC(=O)c1ccc(C(=O)NCC2CCN2C2CCCC2)cn1 (stereo not drawn) [Compound 1015] | significantly enhanced | 960 ± 140 | activate | 623 ± 212 | significantly inhibited | do not display any inhibitory effects |  | 
2 | CC1CCCC(C)N1CCNC(=O)c1ccc(C(=O)Nc2ccccc2N)nc1 (stereo not drawn) [Compound 1011] | significantly enhanced | 930 ± 10 |  | 920 ± 455 |  | do not display any inhibitory effects |  | 
3 | Nc1ccccc1NC(=O)c1ccc(C(=O)NCCN2CCC3(CCCCC3)CC2)cc1 [Compound 1020] | significantly enhanced | 1020 ± 240 |  | 860 ± 278 | significantly inhibited | do not display any inhibitory effects |  | 
4 | CC(=O)Nc1ccc(C(=O)Nc2ccccc2N)cc1 [CI-994, 4-(acetylamino)-N-(2-aminophenyl)benzamide, reference compound] |  |  | increased |  |  |  | significantly increased | deceased
